# Laboratory results from ChEMBL document CHEMBL6182928, “Characterization of Hepatotropic Small Molecule Inhibitors of Hypoxia Inducible Factor Prolyl Hydroxylase in the Prevention of Oxygen-Induced Retinopathy” (J Med Chem, 2025).
# Active and inactive are the calls of the source. No cut-off for these calls is given here.
# How the values were obtained:
# [1] = biological target: Hypoxia-inducible factor 1-alpha (Mus musculus) (UniProt Q61221); test: Induction of stabilization of HIF-1alpha in mouse NIH-3T3-HIF/Luc cells assessed as activation of HRE by measuring […] at 500 uM incubated for 24 hrs by Bright-glo luciferase assay; format: cell-based
# [2] = biological target: Hypoxia-inducible factor 1-alpha (Homo sapiens) (UniProt Q16665); test: Induction of stabilization of HIF-1alpha in human Hep3B cells by measuring fold change protein level at 500 uM incubated for 3 hrs by Western blot analysis; format: cell-based
# Mus musculus [3] = test: In vivo inhibition of PHD in Luc-ODD mouse model assessed as stabilization of HIF-1alpha in brain at 1 mM, ip single dose on postnatal day 7 measured at 3 to 24 hrs by Bright-glo luciferase assay; format: functional, organism-based; conditions: time 3-24 hrs
# Mus musculus [4] = test: (§1) Protection against oxygen-induced retinopathy in wild type C57BL/6J mouse pup assessed as reduction in retinal vaso-obliteration at 1 mmol/Kg, ip administered on postnatal day 6, 8, 10 and reared in 75% oxygen exposure on postnatal day 7 to day 12 and measured on postnatal day 17 by lectin based staining analysis; format: functional, organism-based; conditions: time 12.0 day
# [5] = biological target: Hypoxia-inducible factor 1-alpha (Homo sapiens) (UniProt Q16665); test: Induction of stabilization of HIF-1alpha in human Hep3B cells at 1 to 4 mM measured at 24 hrs by Immunoblot analysis; format: cell-based; conditions: dose 1-4 mM
# Mus musculus [6] = test: In vivo inhibition of PHD in Luc-ODD mouse model assessed as stabilization of HIF-1alpha in kidney at 1 mM, ip single dose on postnatal day 8 measured after 3 hrs by Bright-glo luciferase assay; format: functional, organism-based
# Mus musculus [7] = test: In vivo inhibition of PHD in Luc-ODD mouse model assessed as stabilization of HIF-1alpha in liver at 1 mM, ip single dose on postnatal day 8 measured after 3 hrs by Bright-glo luciferase assay; format: functional, organism-based
# Mus musculus [8] = test: as §1, with “neovascularization” for “vaso-obliteration”; format: functional, organism-based; conditions: time 12.0 day
# Mus musculus [9] = test: Protection against oxygen-induced hypomyelination in mouse pup assessed as increase in bipolar cell activity by measuring amplitude of ERG b-wave administered as ip dose on postnatal day 3, 5, 7 and reared in 80% oxygen exposure on postnatal day 4 to day 8 and measured on postnatal day 11 by electroretinogram analysis; format: functional, organism-based; conditions: time 9.0 day
# Mus musculus [10] = test: as §1, with “liver-specific HIF knockout (LHKO)” for “wild type C57BL/6J”; format: functional, organism-based; conditions: time 12.0 day
# Mus musculus [11] = test: (§2) Protection against oxygen-induced retinopathy in mouse pup assessed as astrocyte survival administered as ip dose on postnatal day 6, 8, 10 and reared in 75% oxygen exposure on postnatal day 7 to day 12 and measured on postnatal day 17 by isolectin/GFAP based staining analysis; format: functional, organism-based; conditions: time 12.0 day
# Mus musculus [12] = test: as §1, with “avascular retina” for “retinal vaso-obliteration”; format: functional, organism-based; conditions: time 12.0 day
# Mus musculus [13] = test: Protection against oxygen-induced hypomyelination in mouse pup assessed as increase in Bnip3 mRNA level in liver administered as ip dose on postnatal day 3, 5, 7 and reared in 80% oxygen exposure on postnatal day 4 to day 8 and measured on postnatal day 11; format: functional, organism-based; conditions: time 9.0 day
# [14] = biological target: Hypoxia-inducible factor 1-alpha (Mus musculus) (UniProt Q61221); test: Induction of stabilization of HIF-1alpha in mouse NIH-3T3-HIF/Luc cells assessed as activation of HRE at 1 mM incubated for 24 hrs by Bright-glo luciferase assay; format: cell-based
# [15] = biological target: Hypoxia-inducible factor 1-alpha (Homo sapiens) (UniProt Q16665); test: Induction of stabilization of HIF-1alpha in human Hep3B cells at 1 mM measured at 3 to 6 hrs by Immunoblot analysis; format: cell-based; conditions: time 3-6 hrs
# [16] = biological target: Hypoxia-inducible factor 1-alpha (Mus musculus) (UniProt Q61221); test: Induction of stabilization of HIF-1alpha in mouse NIH-3T3-HIF/Luc cells assessed as activation of HRE measured at 24 hrs by Bright-glo luciferase assay; format: cell-based
# [17] = biological target: Hypoxia-inducible factor 1-alpha (Mus musculus) (UniProt Q61221); test: Induction of stabilization of HIF-1alpha in mouse NIH-3T3-HIF/Luc cells assessed as activation of HRE at 1 to 4 mM measured at 48 hrs by Bright-glo luciferase assay; format: cell-based; conditions: dose 1-4 mM
# Mus musculus [18] = test: Effect on myelination in oxygen-induced hypomyelination mouse pup model assessed as effect on myelin basic protein level in brain administered as ip dose on postnatal day 3, 5, 7 and reared in 80% oxygen exposure on postnatal day 4 to day 8 and measured on postnatal day 11 by Western blot analysis; format: functional, organism-based; conditions: time 9.0 day
# Mus musculus [19] = test: Protection against oxygen-induced hypomyelination in mouse pup assessed as increase in vegf mRNA level in liver administered as ip dose on postnatal day 3, 5, 7 and reared in 80% oxygen exposure on postnatal day 4 to day 8 and measured on postnatal day 11; format: functional, organism-based; conditions: time 9.0 day
# Mus musculus [20] = test: Protection against oxygen-induced hypomyelination in mouse pup assessed as increase in Cox4i2 mRNA level in liver administered as ip dose on postnatal day 3, 5, 7 and reared in 80% oxygen exposure on postnatal day 4 to day 8 and measured on postnatal day 11; format: functional, organism-based; conditions: time 9.0 day
# Mus musculus [21] = test: Protection against oxygen-induced hypomyelination in mouse pup assessed as increase in serpine1 mRNA level in liver administered as ip dose on postnatal day 3, 5, 7 and reared in 80% oxygen exposure on postnatal day 4 to day 8 and measured on postnatal day 11; format: functional, organism-based; conditions: time 9.0 day
# Mus musculus [22] = test: Effect on myelination in oxygen-induced hypomyelination mouse pup model assessed as effect on HIF-1alpha level in brain administered as ip dose on postnatal day 3, 5, 7 and reared in 80% oxygen exposure on postnatal day 4 to day 8 and measured on postnatal day 11 by Western blot analysis; format: functional, organism-based; conditions: time 9.0 day
# Mus musculus [23] = test: In vivo inhibition of PHD in Luc-ODD mouse model assessed as stabilization of HIF-1alpha in liver at 1 mM, ip single dose on postnatal day 7 measured after 24 hrs by Bright-glo luciferase assay; format: functional, organism-based
# [24] = biological target: Hypoxia-inducible factor 1-alpha (Homo sapiens) (UniProt Q16665); test: Induction of stabilization of HIF-1alpha in human Hep3B cells incubated for 24 hrs by Immunoblot analysis; format: cell-based
# Mus musculus [25] = test: as §2, with “glia preservation in total retinal flat mount” for “astrocyte survival”; format: functional, organism-based; conditions: time 12.0 day
# [26] = biological target: Hypoxia-inducible factor 1-alpha (Homo sapiens) (UniProt Q16665); test: Induction of stabilization of HIF-1alpha in human Hep3B cells measured at 3 hrs by Western blot analysis; format: cell-based
# Chain of Hypoxia-inducible factor 1-alpha (Homo sapiens) (Q16665 whole entry, looked up): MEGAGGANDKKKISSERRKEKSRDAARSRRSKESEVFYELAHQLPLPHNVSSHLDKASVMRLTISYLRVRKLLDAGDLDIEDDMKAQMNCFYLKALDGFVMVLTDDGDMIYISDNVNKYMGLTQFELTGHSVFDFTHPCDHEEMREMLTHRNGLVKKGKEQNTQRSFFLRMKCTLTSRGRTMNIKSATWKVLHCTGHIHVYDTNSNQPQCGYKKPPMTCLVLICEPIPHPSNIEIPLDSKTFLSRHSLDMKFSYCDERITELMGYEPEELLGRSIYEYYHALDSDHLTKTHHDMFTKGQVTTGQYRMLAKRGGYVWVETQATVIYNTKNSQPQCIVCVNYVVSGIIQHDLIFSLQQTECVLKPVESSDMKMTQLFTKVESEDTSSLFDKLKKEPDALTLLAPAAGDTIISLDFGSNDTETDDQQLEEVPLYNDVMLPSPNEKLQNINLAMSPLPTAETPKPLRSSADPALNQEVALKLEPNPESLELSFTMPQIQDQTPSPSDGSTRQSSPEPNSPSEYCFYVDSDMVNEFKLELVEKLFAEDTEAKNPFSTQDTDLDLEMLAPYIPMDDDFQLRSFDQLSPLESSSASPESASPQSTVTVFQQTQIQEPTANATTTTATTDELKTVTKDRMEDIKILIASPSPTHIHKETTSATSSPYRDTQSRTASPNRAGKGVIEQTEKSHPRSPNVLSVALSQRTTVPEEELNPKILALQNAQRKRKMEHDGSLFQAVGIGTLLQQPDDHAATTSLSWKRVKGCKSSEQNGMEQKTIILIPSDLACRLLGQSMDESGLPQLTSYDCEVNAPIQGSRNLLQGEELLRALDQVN
# Chain of Hypoxia-inducible factor 1-alpha (Mus musculus) (Q61221 whole entry): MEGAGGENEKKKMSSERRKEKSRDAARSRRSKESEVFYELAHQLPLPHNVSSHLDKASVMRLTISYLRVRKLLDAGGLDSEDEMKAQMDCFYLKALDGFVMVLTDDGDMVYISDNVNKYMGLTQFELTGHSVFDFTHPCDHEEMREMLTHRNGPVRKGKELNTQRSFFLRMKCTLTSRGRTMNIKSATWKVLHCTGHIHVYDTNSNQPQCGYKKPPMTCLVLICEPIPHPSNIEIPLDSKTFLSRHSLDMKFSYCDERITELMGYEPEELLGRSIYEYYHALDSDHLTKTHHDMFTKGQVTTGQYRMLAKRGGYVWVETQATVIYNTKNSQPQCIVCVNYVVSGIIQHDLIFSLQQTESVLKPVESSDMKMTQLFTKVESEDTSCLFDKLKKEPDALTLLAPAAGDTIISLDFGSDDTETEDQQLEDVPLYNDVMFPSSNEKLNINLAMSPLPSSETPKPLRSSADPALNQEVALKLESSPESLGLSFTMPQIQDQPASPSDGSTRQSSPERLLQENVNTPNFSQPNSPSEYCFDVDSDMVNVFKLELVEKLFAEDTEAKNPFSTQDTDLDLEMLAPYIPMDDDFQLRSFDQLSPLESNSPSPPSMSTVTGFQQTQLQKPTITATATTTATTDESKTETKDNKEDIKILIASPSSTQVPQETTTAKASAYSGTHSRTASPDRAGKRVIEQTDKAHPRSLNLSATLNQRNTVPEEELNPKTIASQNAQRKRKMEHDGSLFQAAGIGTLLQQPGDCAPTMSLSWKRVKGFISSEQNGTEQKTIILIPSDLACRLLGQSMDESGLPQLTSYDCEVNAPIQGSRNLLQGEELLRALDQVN
smiles,measurement,setting,value
COC(=O)C(=O)NCC(=O)OCOC(=O)Oc1ccccc1,fold change (FC),[1],< 1
same,fold change (FC),[2],< 1
COC(=O)C(=O)NCC(=O)OCOC(C)=O,fold change (FC),[1],< 1
same,fold change (FC),[2],2
COC(=O)C(=O)NCC(=O)OCOC(=O)c1ccccc1,fold change (FC),[1],< 2
same,fold change (FC),[2],3
CCC(=O)OCOC(=O)CNC(=O)C(=O)OC,fold change (FC),[1],< 1
same,fold change (FC),[2],1
COC(=O)C(=O)NCC(=O)OC(C)OC(=O)Oc1ccccc1 (centres undefined),fold change (FC),[1],< 2
same,fold change (FC),[2],5
COC(=O)OC(C)OC(=O)CNC(=O)C(=O)OC (centres undefined),fold change (FC),[1],< 2
same,fold change (FC),[2],3
COC(=O)C(=O)NCC(=O)OC(C)C,Activity,Mus musculus [3],inactive
same,Activity,Mus musculus [4],Active
same,Activity,[5],inactive
same,Activity,Mus musculus [6],Active
same,Activity,Mus musculus [7],Active
same,Activity,Mus musculus [8],Active
same,Activity,Mus musculus [9],Active
same,Activity,Mus musculus [10],Active; Less Protected Compared To Compound Treated Wild-Type Mouse
same,Activity,Mus musculus [11],Active
same,Activity,Mus musculus [12],Active
same,Activity,Mus musculus [13],Active; Compound Showed Higher Mrna Expression In Liver Compared To Brain
same,Activity,[14],Active
same,Activity,[15],Active
same,ED50,[16],1140 µM
same,Activity,[17],inactive
same,Activity,Mus musculus [18],inactive
same,Activity,Mus musculus [19],Active; Compound Showed Higher Mrna Expression In Liver Compared To Brain
same,Activity,Mus musculus [20],Active; Compound Showed Higher Mrna Expression In Liver Compared To Brain
same,Activity,Mus musculus [21],Active; Compound Showed Higher Mrna Expression In Liver Compared To Brain
same,Activity,Mus musculus [22],inactive
same,Activity,Mus musculus [23],Active
same,Activity,[24],Active
same,Activity,Mus musculus [25],Active
same,ED50,[26],2130 µM
CCC(=O)OC(C)OC(=O)CNC(=O)C(=O)OC (centres undefined),fold change (FC),[1],< 2
same,fold change (FC),[2],4
COC(=O)C(=O)NCC(=O)OCOC(=O)OC(C)(C)C,fold change (FC),[1],< 1
same,fold change (FC),[2],< 1
CCOC(=O)OCOC(=O)CNC(=O)C(=O)OC,fold change (FC),[1],< 1
same,fold change (FC),[2],< 1
COC(=O)C(=O)NCC(=O)OC(C)OC(=O)C(C)(C)C (centres undefined),fold change (FC),[1],< 2
same,fold change (FC),[2],6
CCOC(=O)OC(C)OC(=O)CNC(=O)C(=O)OC (centres undefined),fold change (FC),[1],< 2
same,fold change (FC),[2],3
COC(=O)C(=O)NCC(=O)OC(C)OC(=O)c1ccccc1 (centres undefined),fold change (FC),[1],< 2
same,fold change (FC),[2],5
COC(=O)C(=O)NCC(=O)OC(C)OC(=O)OC(C)C (centres undefined),fold change (FC),[1],< 2
same,fold change (FC),[2],3
COC(=O)C(=O)NCC(=O)OCOC(=O)C(C)C,fold change (FC),[1],< 1
same,fold change (FC),[2],< 1
COC(=O)OCOC(=O)CNC(=O)C(=O)OC,fold change (FC),[1],< 1
same,fold change (FC),[2],< 1
COC(=O)C(=O)NCC(=O)OC(C)OC(=O)C(C)C (centres undefined),fold change (FC),[1],< 2
same,fold change (FC),[2],7
COC(=O)C(=O)NCC(=O)OCOC(=O)C(C)(C)C,fold change (FC),[1],< 1
same,fold change (FC),[2],1
COC(=O)C(=O)NCC(=O)OCOC(=O)OC(C)C,fold change (FC),[1],< 1
same,fold change (FC),[2],< 1
COC(=O)C(=O)NCC(=O)OC(C)OC(=O)OC(C)(C)C (centres undefined),fold change (FC),[1],< 2
same,fold change (FC),[2],2
COC(=O)C(=O)NCC(=O)OC(C)OC(C)=O (centres undefined),fold change (FC),[1],< 2
same,fold change (FC),[2],6
